{"source": "paper PMC10815436", "about": "“Toward New AQP4 Inhibitors: ORI-TRN-002” (International Journal of Molecular Sciences, 2024)", "key": {"[1]": {"assay": "Octanol-water distribution coefficient at pH 7.4 (Origenis BRAINstorm platform, affinity chromatography)", "format": "physicochemical", "excerpt": "(§1) To evaluate the potential drug-like properties of the electronic homologue ORI-TRN-002, we measured the compound’s properties in the Origenis BRAINstorm™ platform. This platform uses affinity chromatography under standard conditions and standard calibrants to measure compound properties with high accuracy and reproducibility. […] It supersedes the solubility and free fraction limitations of the Aeromics/Simcere drug AER-270 [21] (Figure 2). ORI-TRN-002 requires no prodrug approach and serves as an ideal starting point for further optimization.\n(§2) The chemical structures of the three AQP4 inhibitors studied and their measured physico-chemical properties (logD at pH 7.4, log10 of molar human serum albumin affinity constant, percent human plasma protein binding, log10 of human alpha acid glycoprotein affinity constant, unbound fraction in liver, and unbound fraction in hepatocytes). TEXT PRINTED IN THE PICTURE: TGN-020: logD: 0.04; logKaHSA: 3.51; hPPB%: 68.20; logKaRSA: 2.72; logKaAGP: 1.18; fu, liver: 1.00; fu, hep: 0.92 | AER-270: logD: 3.31; logKaHSA: 5.46; hPPB%: 99.50; logKaRSA: 5.26; logKaAGP: 6.94; fu, liver: <0.01; fu, hep: <0.01 | ORI-TRN-002: logD: -0.07; logKaHSA: 2.99; hPPB%: 39.20; logKaRSA: 2.89; logKaAGP: 1.88; fu, liver: 1.00; fu, hep: 0.95"}, "[2]": {"target": "human serum albumin (Homo sapiens, UniProt P02768)", "sequence (P02768 25-609)": "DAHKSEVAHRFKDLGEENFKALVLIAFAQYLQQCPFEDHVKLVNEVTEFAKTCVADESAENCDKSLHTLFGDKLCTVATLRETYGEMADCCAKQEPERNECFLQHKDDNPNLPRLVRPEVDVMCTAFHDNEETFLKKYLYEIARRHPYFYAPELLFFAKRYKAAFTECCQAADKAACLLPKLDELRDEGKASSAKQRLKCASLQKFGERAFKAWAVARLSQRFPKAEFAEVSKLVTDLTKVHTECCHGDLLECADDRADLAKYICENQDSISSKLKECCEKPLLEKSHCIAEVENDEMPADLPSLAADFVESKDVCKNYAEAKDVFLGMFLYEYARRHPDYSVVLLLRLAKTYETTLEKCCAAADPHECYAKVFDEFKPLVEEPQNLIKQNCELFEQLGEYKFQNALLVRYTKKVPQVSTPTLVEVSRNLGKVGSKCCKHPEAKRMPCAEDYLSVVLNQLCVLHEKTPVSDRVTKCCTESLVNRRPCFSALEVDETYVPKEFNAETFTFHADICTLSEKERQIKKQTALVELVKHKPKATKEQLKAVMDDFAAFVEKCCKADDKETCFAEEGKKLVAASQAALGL", "assay": "Human serum albumin affinity (BRAINstorm affinity chromatography)", "format": "binding", "excerpt": "as §1, §2"}, "[3]": {"target": "rat serum albumin (Rattus norvegicus, UniProt P02770)", "sequence (P02770 25-608)": "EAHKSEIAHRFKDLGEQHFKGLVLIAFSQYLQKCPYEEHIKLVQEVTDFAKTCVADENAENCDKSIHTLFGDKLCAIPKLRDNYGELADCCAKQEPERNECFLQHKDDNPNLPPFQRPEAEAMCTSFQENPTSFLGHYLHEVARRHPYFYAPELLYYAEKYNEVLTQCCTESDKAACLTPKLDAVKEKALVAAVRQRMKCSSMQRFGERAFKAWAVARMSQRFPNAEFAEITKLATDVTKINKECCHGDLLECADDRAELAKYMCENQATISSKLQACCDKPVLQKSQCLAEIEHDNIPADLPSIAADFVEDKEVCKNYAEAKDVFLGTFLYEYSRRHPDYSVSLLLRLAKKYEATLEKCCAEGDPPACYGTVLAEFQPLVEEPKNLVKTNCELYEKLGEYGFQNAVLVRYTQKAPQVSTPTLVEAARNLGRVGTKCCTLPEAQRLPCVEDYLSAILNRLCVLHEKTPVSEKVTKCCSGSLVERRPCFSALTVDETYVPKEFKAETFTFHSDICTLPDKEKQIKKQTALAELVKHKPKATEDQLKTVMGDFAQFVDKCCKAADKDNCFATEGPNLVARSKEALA", "assay": "Rat serum albumin affinity (BRAINstorm affinity chromatography)", "format": "binding", "excerpt": "as §1, §2"}, "[4]": {"assay": "Percentage of binding to human plasma proteins (BRAINstorm)", "format": "in vitro ADME", "excerpt": "as §1, §2"}, "[5]": {"assay": "Unbound fraction in liver (BRAINstorm)", "format": "in vitro ADME", "excerpt": "as §1, §2"}, "[6]": {"assay": "Unbound fraction in hepatocytes (BRAINstorm)", "format": "in vitro ADME", "excerpt": "as §1, §2"}, "[7]": {"system": "human AQP4", "conditions": "cited from earlier work"}, "[8]": {"system": "cerebral edema", "conditions": "cited from earlier work"}, "[9]": {"system": "cerebral edema", "design": "method as in doi:10.1097/01.ccm.0000473851.20338.3b, PMID 29635589", "conditions": "various traumatic brain injury models; cited from earlier work"}, "[10]": {"system": "AQP4", "design": "method as in PMID 32506554, PMID 30934923", "conditions": "cited from earlier work"}, "[11]": {"system": "AQP4.M23", "design": "method as in PMID 17178220", "conditions": "oocytes; cited from earlier work"}, "[12]": {"system": "AQP4-expressing oocytes", "assay": "Membrane potential of treated AQP4-expressing oocytes (toxicity check)", "format": "cell-based, Xenopus laevis", "from_the_text": "Following the introduction of an abrupt hyposmotic challenge (−100 mOsm), we determined the osmotic water permeability of the oocytes during the continuous recording of the oocyte volume with a high-resolution volume recording system. This experimental setup allows for the osmotic gradient to be introduced at a faster rate than the rate of cell volume change and sufficiently fast data acquisition to obtain several data points at the initial linear part of the cell volume change, which is required to obtain the osmotic water permeability of an AQP-expressing oocyte. […] The oocytes were exposed to the novel drugs (or control solution) for 60 min. prior to the determination of water permeability. The established AQP4 blockers, TGN-020 and AER-270, served as positive controls."}, "[13]": {"target": "rat AQP4 (Rattus norvegicus, UniProt P47863)", "sequence (P47863 23-323)": "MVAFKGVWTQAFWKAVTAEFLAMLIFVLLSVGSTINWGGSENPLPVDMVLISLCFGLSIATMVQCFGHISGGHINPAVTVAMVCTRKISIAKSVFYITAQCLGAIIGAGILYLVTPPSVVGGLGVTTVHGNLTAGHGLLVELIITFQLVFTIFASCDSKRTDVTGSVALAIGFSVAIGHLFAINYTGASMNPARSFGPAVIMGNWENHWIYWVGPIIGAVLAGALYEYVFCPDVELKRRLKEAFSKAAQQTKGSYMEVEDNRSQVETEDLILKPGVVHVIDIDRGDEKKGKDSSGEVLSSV", "assay": "Osmotic water permeability of rat AQP4-expressing Xenopus laevis oocytes (high-resolution volume recording, hyposmotic challenge)", "conditions": "IC50 for rAQP4 (AQP4-mediated water permeability), rat AQP4 in Xenopus laevis oocytes, different concentrations, n = 6, mean ± SEM", "from_the_text": "To resolve ORI-TRN-002’s inhibitory effect on AQP4, rat AQP4 (rAQP) was heterologously expressed in Xenopus laevis oocytes, and the AQP4-mediated water permeability was quantified. Following the introduction of an abrupt hyposmotic challenge (−100 mOsm), we determined the osmotic water permeability of the oocytes during the continuous recording of the oocyte volume with a high-resolution volume recording system. This experimental setup allows for the osmotic gradient to be introduced at a faster rate than the rate of cell volume change and sufficiently fast data acquisition to obtain several data points at the initial linear part of the cell volume change, which is required to obtain the osmotic water permeability of an AQP-expressing oocyte. The native oocyte membrane has a low inherent water permeability, thus the uninjected oocytes display a negligible background (see Figure 3A for summarized data on osmotic water permeabilities; compare 0.21 ± 0.13 × 10^−3 cm s^−1, n = 9, for uninjected oocytes to 3.80 ± 0.33 × 10^−3 cm s^−1, n = 11, for AQP4-expressing oocytes; representative volume traces shown as insets)). The oocytes were exposed to the novel drugs (or control solution) for 60 min. prior to the determination of water permeability. The established AQP4 blockers, TGN-020 and AER-270, served as positive controls. […]"}, "[14]": {"conditions": "read-out: logKaHSA (log10 of molar human serum albumin affinity constant) (converted)"}, "[15]": {"conditions": "read-out: logKaRSA (rat serum albumin affinity) (converted)"}, "[16]": {"conditions": "human plasma proteins, read-out: hPPB% (percent human plasma protein binding) (converted)"}, "[17]": {"conditions": "liver, read-out: fu, liver (unbound fraction in liver)"}, "[18]": {"conditions": "read-out: fu, hep (unbound fraction in hepatocytes)"}}, "note": "Where “and” joins values, the source holds several entries; their conditions need not be identical. Identical values can stand only once. Like-named read-outs stand apart in the source and are kept apart here.", "data": [{"smiles": "O=C(Nc1cc(C(F)(F)F)cc(C(F)(F)F)c1)c1cc(Cl)ccc1O", "note": "[AER-270, N-[3,5-bis (trifluoromethyl)phenyl]-5-chloro-2-hydroxybenzamide]", "values": [{"measurement": "chromatographic logD", "setting": "[1]", "result": 3.31}, {"measurement": "Kd", "setting": "[2]", "result": 3.47, "unit": "µM"}, {"measurement": "Kd", "setting": "[3]", "result": 5.5, "unit": "µM"}, {"measurement": "fraction unbound", "setting": "[4]; plasma", "result": 0.005}, {"measurement": "fraction unbound", "setting": "[5]", "result": "< 0.01"}, {"measurement": "fraction unbound", "setting": "[6]", "result": "< 0.01"}, {"measurement": "maximal inhibition of human AQP4", "setting": "[7]", "result": 20, "unit": "%"}]}, {"smiles": "O=C(Nc1cc(C(F)(F)F)cc(C(F)(F)F)c1)c1cc(Cl)ccc1OP(=O)(O)O", "note": "[AER-271, 2-([3,5-Bis(trifluoromethyl)phenyl]carbamoyl)-4-chlorophenyl dihydrogen phosphate]", "values": [{"measurement": "AQP4-mediated cerebral edema", "setting": "[8]; rodent model of transient MCAO", "result": "selectively and effectively reduced"}, {"measurement": "neurological outcome", "setting": "[8]; rodent model of transient MCAO", "result": "improved"}, {"measurement": "swelling in two models of CNS injury complicated by cerebral edema", "setting": "[8]; water intoxication and ischemic stroke modeled by MCAO", "result": "reduce swelling"}, {"measurement": "reduction of cerebral edema", "setting": "[9]", "result": "ineffective"}]}, {"smiles": "CCCCNc1cc(C(=O)Nc2ccncc2)cc(S(N)(=O)=O)c1Oc1ccccc1", "note": "[AqB013]", "values": [{"measurement": "block of AQP4-mediated water permeability", "setting": "[10]", "result": "not be effective blockers"}]}, {"smiles": "CCOc1ccc2nc(S(N)(=O)=O)sc2c1", "note": "[Ethoxyzolamide]", "values": [{"measurement": "inhibition of AQP4.M23", "setting": "[11]", "result": "inhibit"}]}, {"smiles": "O=c1[nH]c(-c2cccnc2)nc2[nH]ncc12", "note": "[ORI-TRN-002, 6-(pyridin-3-yl)-1H-pyrazolo[3,4-d]pyrimidin-4(5H)-one]", "values": [{"measurement": "membrane potential of treated oocytes", "setting": "[12]; 20 μM acute application, 10 min, non-treated -25.6 ± 0.50 mV, n = 9", "result": "−26.9 ± 0.61", "unit": "mV"}, {"measurement": "membrane potential of treated oocytes", "setting": "[12]; 20 µM, 60 min, non-treated −26.2 ± 0.62 mV, n = 12", "result": "−24.4 ± 0.74", "unit": "mV"}, {"measurement": "chromatographic logD", "setting": "[1]; octanol/water", "result": -0.07}, {"measurement": "Kd", "setting": "[2]; [14]", "result": 1020, "unit": "µM"}, {"measurement": "Kd", "setting": "[3]; [15]", "result": 1290, "unit": "µM"}, {"measurement": "fraction unbound", "setting": "[4]; [16]", "result": 0.608}, {"measurement": "fraction unbound", "setting": "[5]; [17]", "result": 1}, {"measurement": "fraction unbound", "setting": "[6]; [18]", "result": 0.95}, {"measurement": "IC50", "setting": "[13]", "result": "~3 µM and 2.9 µM"}]}, {"smiles": "O=C(Nc1nncs1)c1cccnc1", "note": "[TGN-020, 2-(nicotinamide)-1,3,4-thiadiazole]", "values": [{"measurement": "chromatographic logD", "setting": "[1]; octanol/water", "result": 0.04}, {"measurement": "Kd", "setting": "[2]; [14]", "result": 309, "unit": "µM"}, {"measurement": "Kd", "setting": "[3]; [15]", "result": 1910, "unit": "µM"}, {"measurement": "fraction unbound", "setting": "[4]; [16]", "result": 0.318}, {"measurement": "fraction unbound", "setting": "[5]; [17]", "result": 1}, {"measurement": "fraction unbound", "setting": "[6]; [18]", "result": 0.92}]}, {"smiles": "CC(=O)Nc1nnc(S(N)(=O)=O)s1", "note": "[acetazolamide]", "values": [{"measurement": "block of AQP4-mediated water permeability", "setting": "[10]", "result": "not be effective blockers"}]}, {"smiles": "CCCCNc1cc(C(=O)O)cc(S(N)(=O)=O)c1Oc1ccccc1", "note": "[bumetanide]", "values": [{"measurement": "block of AQP4-mediated water permeability", "setting": "[10]", "result": "not be effective blockers"}]}, {"smiles": "CC[N+](CC)(CC)CC", "note": "[tetraethylammonium (TEA), tetraethylammonium]", "values": [{"measurement": "block of AQP4-mediated water permeability", "setting": "[10]", "result": "not be effective blockers"}]}]}
